Some test systems named below: M19-MEL melanoma; DLD-1 colon; UO-31 renal; SNB-78 CNS; DMS 114 small cell lung; LXFL 529 NSCLC; XF 498 CNS; HOP-18 NSCLC; DMS 273 small cell lung; EKVX NSCLC; HOP-92 NSCLC; KM20L2 colon; HCT-15 colon; T-47D breast.
Holding throughout (assay): DTP human tumour cell line panel, 48 h

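All cell lines were grown in 96-well plates and treated with compound for 48 hours. TGI: concentration producing complete growth inhibition.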

These results are taken from PubChem BioAssay (NCI).

Broadly, the TGI is the concentration at which net growth stops.

Regarding `C#C[C@]1(O)CCC2C3CCc4cc(Oc5nc(F)nc(-c6c7cc8ccccc8cc7c7n6CCS7)n5)ccc4C3CCC21C` (some centres undefined), the TGI with M19-MEL melanoma is over 100 µM; in the experiment on DLD-1 colon it was over 100 µM; in the experiment on UO-31 renal, over 100 µM; in the experiment with SNB-78 CNS, over 100 µM; in the experiment with DMS 114 small cell lung it was 50.8 µM; in the experiment with LXFL 529 NSCLC, over 100 µM. For the same compound, the TGI with XF 498 CNS was over 100 µM; in the experiment on HOP-18 NSCLC, over 100 µM; in the experiment on DMS 273 small cell lung, over 100 µM; in the experiment with EKVX NSCLC, over 100 µM; in the experiment with HOP-92 NSCLC it was over 100 µM; in the experiment with KM20L2 colon, 99.6 µM.

As for `CCCN1CN(C(C(=O)N[C@@H]2C(=O)N3C(C(=O)O)=C(C)CSC23)c2ccc(O)cc2)CSC1=S` (some centres undefined), the TGI in the experiment on M19-MEL melanoma, in the experiment on DLD-1 colon, with UO-31 renal, in the experiment with SNB-78 CNS, in the experiment on DMS 114 small cell lung and in the experiment with LXFL 529 NSCLC was over 100 µM in each case. Further, the TGI in the experiment on XF 498 CNS, in the experiment on HCT-15 colon, with HOP-18 NSCLC, in the experiment with DMS 273 small cell lung, in the experiment with EKVX NSCLC and in the experiment with HOP-92 NSCLC was over 100 µM in each case. In the experiment with KM20L2 colon, this compound gave a TGI of over 100 µM.

On to `CC(C)C1CCC/C=C/C=C/C=C/C=C/C(OC2OC(C)C(O)C(N)C2O)CC2OC(O)(CC(O)CC(O)C(O)CCC(=O)O1)CC(O)C2C(=O)O` (centres undefined), for which the TGI in the experiment with M19-MEL melanoma, in the experiment on UO-31 renal, in the experiment on SNB-78 CNS, in the experiment with DMS 114 small cell lung, in the experiment with LXFL 529 NSCLC and in the experiment with HCT-15 colon was over 52.5 µM throughout. For the same compound, the TGI with HOP-18 NSCLC, in the experiment with HOP-92 NSCLC and with KM20L2 colon was over 52.5 µM throughout.

`CC/C=C/C(=O)CC(O)(C(F)(F)F)C(F)(F)F`: the TGI in the experiment on UO-31 renal was over 100 µM; in the experiment on T-47D breast it was over 100 µM; with HCT-15 colon it was over 100 µM; in the experiment with EKVX NSCLC, over 100 µM; in the experiment with HOP-92 NSCLC, 86.3 µM.

On to `CC(=O)N(CCc1ccccc1)C(C#N)c1ccc(OCCCCCCCCCCOc2ccc(C(C#N)N(CCc3ccccc3)C(C)=O)cc2)cc1` (centres undefined), for which the TGI in the experiment with UO-31 renal is over 100 µM; in the experiment with T-47D breast it was over 100 µM; in the experiment with HCT-15 colon, over 100 µM; in the experiment on EKVX NSCLC it was over 100 µM; in the experiment with HOP-92 NSCLC it was 43.5 µM.

As to `CN(/N=C/c1ccccn1)C1=NCCCCN1`, the TGI with UO-31 renal, in the experiment on T-47D breast, with HCT-15 colon, in the experiment on EKVX NSCLC and in the experiment with HOP-92 NSCLC was over 100 µM each time.

On to `CCOC(=O)C(NC(=O)CC(C)C)(Nc1ccc(S(=O)(=O)Nc2nc(C)cc(C)n2)cc1)C(F)(F)F` (centres undefined), for which the total growth inhibition concentration (TGI) in the experiment with UO-31 renal, with T-47D breast, in the experiment on HCT-15 colon, in the experiment with EKVX NSCLC and with HOP-92 NSCLC was over 100 µM throughout.

Turning to `CN(C)CCCCN1c2ccccc2Sc2cc(N=[N+]=[N-])ccc21`, the total growth inhibition concentration (TGI) in the experiment with UO-31 renal came to 3.66 µM; with T-47D breast it was 4.86 µM; with HCT-15 colon, 4.53 µM; in the experiment with EKVX NSCLC, 15.5 µM; in the experiment on HOP-92 NSCLC it was 10.5 µM.

As for `CC(=O)NC1C(O)C(O)C(CO)OC1n1ncc(=O)[nH]c1=O` (centres undefined), the TGI with UO-31 renal, with T-47D breast, in the experiment on HCT-15 colon, in the experiment on EKVX NSCLC and in the experiment on HOP-92 NSCLC was over 100 µM each time.

`COc1cccc2c(Nc3ccc(S(=O)(=O)NC(C)=O)cc3)c3ccc([N+](=O)[O-])cc3nc12`: the TGI with UO-31 renal, in the experiment on T-47D breast, in the experiment on HCT-15 colon, in the experiment with EKVX NSCLC and in the experiment on HOP-92 NSCLC was over 100 µM each time.

For `Cc1cc(NCCCCCCCCCC[n+]2c(C)cc(N)c3ccccc32)c2ccccc2n1`, the TGI was 26.4 µM with UO-31 renal; 12.3 µM in the experiment with T-47D breast; 18.4 µM with HCT-15 colon; over 100 µM in the experiment with EKVX NSCLC; 7.62 µM in the experiment on HOP-92 NSCLC.

On to `CC(=O)OC1COC(n2c(-c3ccc(Cl)cc3)cc(-c3ccccc3)c(C#N)c2=S)C(OC(C)=O)C1OC(C)=O` (centres undefined), for which the TGI was 38.4 µM in the experiment with UO-31 renal; 54 µM in the experiment with T-47D breast; over 100 µM in the experiment with HCT-15 colon; over 100 µM in the experiment on EKVX NSCLC; 28.8 µM with HOP-92 NSCLC.

With `CC1(C)CCCCCCC2OC2CCCCCC(C)(C)C1=O` (centres undefined), the TGI was 88.2 µM in the experiment with UO-31 renal; over 100 µM in the experiment on T-47D breast; over 100 µM in the experiment on HCT-15 colon; over 100 µM with EKVX NSCLC; over 81 µM in the experiment with HOP-92 NSCLC.

`COc1cc(Nc2cnc3cc(F)c(F)cc3n2)cc(OC)c1`: the TGI in the experiment with UO-31 renal, with T-47D breast, in the experiment on HCT-15 colon, with EKVX NSCLC and with HOP-92 NSCLC was over 100 µM throughout.

As to `COc1c2ccccc2c(OC)c2nc(C)ccc12`, the total growth inhibition concentration (TGI) with UO-31 renal, with T-47D breast, with HCT-15 colon, in the experiment on EKVX NSCLC and with HOP-92 NSCLC was over 100 µM each time.

Turning to `C[C@H]1C[C@H](C)c2ccccc2N(C)C1=Nc1ccccc1`, the TGI in the experiment with UO-31 renal is over 100 µM; with T-47D breast, over 100 µM; with HCT-15 colon, over 100 µM; in the experiment with EKVX NSCLC, over 100 µM; in the experiment with HOP-92 NSCLC, 40.1 µM.

Consider `CN(C(=O)Cc1ccc(Cl)c(Cl)c1)[C@@H]1CCCC[C@H]1[N+]1(C)CC=CC1`, for which the TGI with UO-31 renal, in the experiment with T-47D breast, with HCT-15 colon, with EKVX NSCLC and in the experiment on HOP-92 NSCLC was over 100 µM in each case.

Turning to `Cc1cccc(C)c1NC(=S)NC=C(C(N)=O)C(N)=O`, the TGI in the experiment on UO-31 renal, in the experiment on T-47D breast, with HCT-15 colon, in the experiment on EKVX NSCLC and with HOP-92 NSCLC was over 100 µM throughout.

In the case of `O=C(O)c1ccc2c(c1)CC1(C2)Cc2ccccc2C1=O` (centres undefined), the TGI in the experiment with UO-31 renal, in the experiment with T-47D breast, with HCT-15 colon, in the experiment with EKVX NSCLC and in the experiment on HOP-92 NSCLC was over 100 µM each time.
